Data published in patent US20230159989A1, “MULTIPLEXED FLUORESCENCE IN SITU HYBRIDIZATION METHOD CAPABLE OF RAPID DETECTION OF BILLIONS OF TARGETS” (Kanvas Biosciences, Inc., priority 2021, published 2023).

System: carbapenem-resistant K. pneumoniae
Experiment: HiPR-FISH chip antimicrobial susceptibility / MIC by growth imaging at several meropenem concentrations
Type: cell-based
Settings: Klebsiella pneumoniae, several hours growth on a HiPR-FISH chip, in agreement with Clinical and Laboratory Standards Institute criteria, read-out: meropenem concentration beyond which the strain still grows (* denotes MIC)

C[C@@H](O)[C@H]1C(=O)N2C(C(=O)O)=C(S[C@@H]3CN[C@H](C(=O)N(C)C)C3)[C@H](C)[C@H]12 [meropenem]
MIC: > 2 µg/mL
